Columns and labels:
[1] = target: T1, inducible NO synthase (NOS2) (Homo sapiens, UniProt P35228); assay: screening test of the modulation of induction of NOS2 by normal human keratinocytes (nitrite and nitrate measurement); format: cell-based; settings: for % inhibition: cytokine-induced normal human keratinocytes, nitrites and nitrates
T1 construct: endogenous in cells; host or cells: normal human keratinocytes (primary culture), induced with interferon-gamma and interleukin 1-beta
Description: The activity of N,N′-bis-(3,4,5-trimethoxybenzyl) ethylenediamine-diacetic acid on the inducible NO synthase was evaluated in the assay described by Heck et al. (J.B.C., vol. 267, No. 30, 21277-21280, 25 Oct. 1992), a screening test of the modulation of induction of NOS2 by normal human keratinocytes. The objective of this test is, briefly, to evaluate the concentration of nitrate and nitrite after stimulation of the NO-synthase 2.
The test is carried out on a culture of normal human keratinocytes, derived from samples taken. The induction of the inducible NO synthase (NOS2) was caused by the addition of a combination of several cytokines to the culture medium. The product tested was applied at three concentrations varying from 10 to 1000 μM.
The product tested was classed in one of the following two categories: inhibitor (I) or donor (D) of NO (nitric oxide) according to its capacity to diminish or increase, respectively, the quantity of nitrites and nitrates produced compared to the control signal […].
The following controls were introduced in the test:
A: positive control (induction of the enzyme): mixtures of interferon-γ(1000 u/ml) and interleukin 1-β (100 u/ml)
In order to determine the activity of the test product the quantity of stable NO reaction products (nitrites and nitrates) is measured with the aid of the “nitric colorimetric assay” kit sold by the Boehringer company under catalogue number 1756.28.
N,N′-bis(3,4,5-trimethoxybenzyl) ethylenediamine-diacetic acid was tested at concentrations of 100 μM, 500 μM and 1000 μM in ethanol.

[2] = test system: normal human keratinocytes; assay: cytotoxicity, % diminution of the signal compared with the control; format: cell-based; settings: concentration equal to or lower than 500 μM
Description: Moreover, the cytotoxicity was expressed as % diminution of the signal compared with the control. A product was considered not to be very cytotoxic from 0-20%, acceptable up to 40% and not retained for values >40%.

T1 sequence (P35228 whole entry): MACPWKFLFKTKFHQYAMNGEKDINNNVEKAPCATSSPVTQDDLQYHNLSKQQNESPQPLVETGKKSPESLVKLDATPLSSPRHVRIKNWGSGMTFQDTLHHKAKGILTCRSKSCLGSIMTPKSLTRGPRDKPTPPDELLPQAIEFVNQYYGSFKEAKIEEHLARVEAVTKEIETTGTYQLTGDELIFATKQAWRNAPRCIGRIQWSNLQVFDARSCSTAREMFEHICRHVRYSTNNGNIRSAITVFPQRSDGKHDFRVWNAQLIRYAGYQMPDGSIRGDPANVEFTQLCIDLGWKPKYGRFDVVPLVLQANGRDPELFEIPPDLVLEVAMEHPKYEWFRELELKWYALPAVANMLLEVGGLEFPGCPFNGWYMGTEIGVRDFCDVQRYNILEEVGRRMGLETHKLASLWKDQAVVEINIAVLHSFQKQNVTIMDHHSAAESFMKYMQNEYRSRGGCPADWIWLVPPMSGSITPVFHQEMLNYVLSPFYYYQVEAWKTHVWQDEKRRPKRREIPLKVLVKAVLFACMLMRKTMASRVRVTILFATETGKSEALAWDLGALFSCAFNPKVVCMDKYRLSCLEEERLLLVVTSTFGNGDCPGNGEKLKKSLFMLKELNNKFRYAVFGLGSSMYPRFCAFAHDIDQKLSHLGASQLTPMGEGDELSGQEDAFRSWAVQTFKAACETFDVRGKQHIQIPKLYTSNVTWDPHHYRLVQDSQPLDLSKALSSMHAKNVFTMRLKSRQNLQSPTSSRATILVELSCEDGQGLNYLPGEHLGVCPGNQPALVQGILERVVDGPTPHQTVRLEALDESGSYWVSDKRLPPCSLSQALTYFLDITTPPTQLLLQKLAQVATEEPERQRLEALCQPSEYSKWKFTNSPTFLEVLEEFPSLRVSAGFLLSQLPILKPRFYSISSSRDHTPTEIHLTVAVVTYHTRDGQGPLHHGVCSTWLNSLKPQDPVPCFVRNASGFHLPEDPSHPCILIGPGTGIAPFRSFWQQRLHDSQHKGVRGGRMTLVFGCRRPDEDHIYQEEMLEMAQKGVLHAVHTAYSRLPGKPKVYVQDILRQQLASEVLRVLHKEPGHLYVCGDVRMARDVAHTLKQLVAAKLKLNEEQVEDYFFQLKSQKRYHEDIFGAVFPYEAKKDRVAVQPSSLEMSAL

Structure (SMILES): COc1cc(CN(CCN(CC(=O)O)Cc2cc(OC)c(OC)c(OC)c2)CC(=O)O)cc(OC)c1OC [N,N′-bis-(3,4,5-trimethoxybenzyl) ethylenediamine-diacetic acid]
- classification as inhibitor (I) or donor (D) of NO ([1]; quantity of nitrites and nitrates produced compared to the control signal): NO donor effect
- % inhibition ([1]; test product 100 μM in ethanol): 29%
- % inhibition ([1]; test product 500 μM in ethanol): 70%
- % inhibition ([1]; test product 1000 μM in ethanol): 84%
- cytotoxicity [2]: not toxic
